The values that follow come from US6930118B2, “3-Oxadiazol-5-yl-1-aminoalkyl-1h-indole derivatives” (Amrad Operations Pty. Ltd., priority 2001, dated 2005).

The subject of experiment [1] is Sprague-Dawley rats. The experiment in a line: Antinociceptive testing (tail flick / plantar test) after intrathecal or intravenous administration. The conditions noted are these: rat. The class given is in vivo. The method, then:
The following sequence protocol was used for the acute intrathecal administration to Sprague-Dawley rats. Each rat only underwent one cycle of the sequence protocol:
Intrathecal catheter placement was carried out as first described by Yaksh and Rudy (1976) The general thrust of the catheter placement involves the PE-10 catheter inserted into the subarachnoid space via the antlanto-occipital membrane (as the entry point) and threaded down to the lumber expansion of the spinal cord (spinal cord level L5/L6). The catheter tip is then exteriorised over the forehead. All animals are, assessed for normal motor function and behaviour post-surgery. […]
Drugs were administered in a 0.1 ml volume followed by 0.1 ml saline (0.9% sodium chloride solution; Baxter, Toongabbie, N.S.W., Australia) flush. Tail flick nociception was measured at 15, 30, and in the case of 0.1 mg/kg CP 55,940, 45 min after intravenous administration.
The antinociception tests were all conducted using the Plantar Test Instrument (Ugo Basile, Varese, Italy) which comprises a movable infra-red (IR) heat source, a glass pane onto which the 3-compartment rat enclosure is placed and a controller. […] The withdrawal latency is measured by the time difference between the activation of the IR heat source and physical withdrawal of the paw or tail from the stimulus. […]

Experiment [2] has as its target T1, CB1 receptor (Rattus norvegicus, UniProt P20272).
T1 construct: the cerebellum was dissected away from the rest of the brain, weighed and homogenised; from tissue; host or cells: Sprague Dawley rat cerebellum membranes
Kind of experiment: Radioligand binding assay, rat cerebellum membranes. The procedure:
The affinity of compounds at cannabinoid receptors is routinely assessed using ligand binding assays known to those skilled in the art. Radioligand binding assays were conducted using rat cerebellum or rat spleen. The cerebellum of the rat is known to express predominantly, if not exclusively, the CB1 receptor subtype (20,21). Thus, binding constants obtained from these studies are characterised by a single affinity value, as only one receptor type is labelled. […] In contrast, biphasic binding curves in the spleen characterised by two affinity constants represent the profile of compounds showing selectivity for one receptor subtype over another. In order to determine the order of selectivity, the high and low affinity values obtained for these compounds in the spleen binding assays were compared to the single affinity estimates obtained for the cerebellum (CB1) assays.
Sprague Dawley rats of either sex (200-300 g) were killed by gassing with 80% CO2 in O2 and decapitation, and the entire brain excised rapidly and placed in ice-cold Tris-HCl buffer (Tris 50 mM, MgCl2 3 mM, EGTA 0.2 mM, pH to 7.4 with HCl). On ice, the cerebellum was dissected away from the rest of the brain, weighed and homogenised (PT-DA 1205/2EC Polytron Aggregate; Kinematica, Luzernerstrasse Switzland) in 10 volumes of ice-cold Tris-HCl buffer. The homogenate was then made up to 20 volumes and centrifuged (Model J2-M1, Beckman, Fullerton, Calif., U.S.A.) at […] for 15 min at 4° C.). Subsequently, the supernatant was discarded, the pellet resuspended in 20 volumes of buffer and centrifuged as before. The resulting pellet was then resuspended in 20 volumes of buffer and assayed for protein content using the method of Bradford (Bradford, 1976) in a Novaspec II spectrophotometer (Pharmacia Biotech; with bovine serum albumin (BSA; Hömosafe BSA, c/o ‘ScimaR’ Templestowe, Australia) as the standard. The homogenate was then recentrifuged and the final pellet resuspended in Tris-HCl buffer at a protein concentration of 5 mg/ml and stored in 500 μl aliquots at −80° C. until used in the binding assay.
Ligand binding assays were performed in polypropylene tubes in a total volume of 1 ml containing Tris-HCl buffer, a final concentration of 1 mg/ml BSA, and varying concentrations of drugs. Tubes contained 30 μg of membrane protein and incubation was started by the addition of 100 μl of either 0.5 nM [^3H]SR141716A or 0.2 nM [^3H]WIN 55,212-2. Experiments were carried out in triplicate at 30° C. for 90 min with non-specific binding being defined as radioligand binding in the presence of 1 μM unlabelled WIN 55,212-2. Incubations were terminated by rapid filtration with a M-24 Cell Harvester (Brandel; Gaithersburg, Md., U.S.A.) using ice-cold Tris-HCl buffer containing 0.5 mg/ml BSA. Filters (Wattman GF/B) were soaked for 2 h prior to filtering in a solution of Tris-HCl buffer containing 3 mg/ml BSA and 0.5% w/w polyethyleneimine (PEI). Filters were left to dry thoroughly before placement into scintillation vials with 5 ml of scintillation cocktail (Ultima Gold LSC-cocktail; Packard Bioscience, Meriden, Conn., U.S.A.) being added. Vials were left to stand overnight before the radioactivity was determined using a Model 1409 DSA Liquid Scintillation counter (EG&E Wallac, Gaithersburg, Md., U.S.A.).
The resulting radioligand binding curves were analyzed by nonlinear regression using the program PRISM 3.0 (GraphPad Software, San Diego, Calif.) in order to derive ligand affinity estimates for the cannabinoid receptor(s).

T1 sequence (P20272 whole entry): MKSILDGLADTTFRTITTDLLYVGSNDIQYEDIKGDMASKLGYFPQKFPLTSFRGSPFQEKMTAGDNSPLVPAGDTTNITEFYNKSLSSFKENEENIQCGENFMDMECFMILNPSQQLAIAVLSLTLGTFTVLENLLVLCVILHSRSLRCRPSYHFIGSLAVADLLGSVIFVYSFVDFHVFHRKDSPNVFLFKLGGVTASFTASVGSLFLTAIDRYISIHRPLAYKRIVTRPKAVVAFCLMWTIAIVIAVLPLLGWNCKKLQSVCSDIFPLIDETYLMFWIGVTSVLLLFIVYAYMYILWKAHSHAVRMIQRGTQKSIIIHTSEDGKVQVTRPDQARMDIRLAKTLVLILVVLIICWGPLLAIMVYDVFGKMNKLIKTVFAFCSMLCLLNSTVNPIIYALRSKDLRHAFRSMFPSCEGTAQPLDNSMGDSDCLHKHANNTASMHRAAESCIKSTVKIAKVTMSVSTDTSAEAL

Regarding `c1ccc(Cc2noc(-c3cn(CCN4CCCC4)c4ccccc34)n2)cc1` [Compound 1, 3-(3-Benzyl-[1,2,4]-oxadiazol-5-yl)-1-[2-(pyrrolidin-1-yl)ethyl]-1H-indole], the antinociceptive effect result in experiment [1] (i.t. route) and in experiment [1] (i.v. route) was “provided an antinociceptive effect” in each case. The compound also returned an IC50 in experiment [2] of 50 nM.

As a reminder, the IC50 is the midpoint of a concentration-inhibition curve.
